Measured values taken from patent US6855726B1, “Quinolones as serine protease inhibitors” (Warner-Lambert Company LLC, priority 1998, dated 2005).

Assays:
[1] = rat arteriovenous shunt and venous stasis models; Wong et al. 1996; cited from earlier work
[2] = target: T1, human factor Xa (Homo sapiens, UniProt P00742); assay: Determination of factor Xa IC50 (chromogenic substrate S2765); format: biochemical
T1 construct: human factor Xa (1 nM final, Enzyme Research Laboratories); purchased Enzyme Research Laboratories
T1 sequence (P00742 235-488 limits assumed): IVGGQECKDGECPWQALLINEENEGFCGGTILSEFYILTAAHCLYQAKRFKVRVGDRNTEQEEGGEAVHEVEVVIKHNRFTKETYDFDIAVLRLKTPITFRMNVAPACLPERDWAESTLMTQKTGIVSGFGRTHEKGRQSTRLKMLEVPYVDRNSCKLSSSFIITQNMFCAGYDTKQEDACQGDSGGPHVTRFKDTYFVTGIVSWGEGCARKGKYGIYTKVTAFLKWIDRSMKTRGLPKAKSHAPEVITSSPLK
T1 sequence (P00742 41-179 partner limits assumed): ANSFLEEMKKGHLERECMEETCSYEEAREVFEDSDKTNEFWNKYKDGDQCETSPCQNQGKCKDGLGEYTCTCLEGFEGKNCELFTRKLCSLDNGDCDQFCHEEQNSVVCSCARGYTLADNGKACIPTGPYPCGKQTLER
Experimental: The ability of compounds to act as inhibitors of human factor Xa catalytic activity is assessed by determination of that concentration of test substance that inhibits by 50% (IC50) the ability of human factor Xa to cleave the chromogenic substrate S2765 (N-CBz-D-Arg-L-Gly-L-Arg-p-nitroanilide. 2HCl, DiaPharma). Typically, 145 μL human factor Xa (1 nM final, Enzyme Research Laboratories) in 10 mM HEPES, 150 mM NaCl, 0.1% BSA, pH 7.4 (HBSA buffer) and 5 μL of test substance in DMSO (2% final) are incubated for 60 minutes at room temperature. Following preheating to 37° C. for 5 minutes, to this mixture is added […] of S2765 in HBSA buffer. The velocity of S2765 hydrolysis is determined at 37° C. by measuring the initial rate of change of the optical density at OD405 nm every 10 seconds for 5 minutes using a ThermoMax®D Kinetic Microplate Reader.

[3] = target: T2, human thrombin (Homo sapiens, UniProt P00734); assay: Determination of thrombin IC50 (chromogenic substrate Chromozym TH); format: biochemical
T2 construct: purchased Enzyme Research Laboratories
Experimental: The ability of compounds to act as inhibitors of human thrombin catalytic activity is assessed by determination of that concentration of test substance that inhibits by 50% (IC50) the ability of human thrombin to cleave the chromogenic substrate Chromozym TH (Tosyl-Gly-Pro-Arg-pNA*Ac, Boehringer Mannheim). Typically, 145 μL human thrombin (0.75 nM, Enzyme Research Laboratories) in a HPB buffer (10 mM HEPES, 100 mM NaCl, 0.05% BSA, 0.1% PEG-8000, pH 7.4) and 5 μL of test substance in DMSO (2% final) are incubated for 60 minutes at room temperature. Following preheating to 37° C. for 5 minutes, to this mixture is added 100 μL of Chromozym TH in HPB buffer. The velocity of Chromozym TH hydrolysis is determined at 37° C. by measuring the initial rate of change of the optical density at OD405 nm every 10 seconds for 5 minutes using a ThermoMax® Kinetic Microplate Reader.

[4] = target: human trypsin (Homo sapiens, UniProt P07477); assay: Determination of trypsin IC50 (chromogenic substrate S2222); format: biochemical
Experimental: The ability of compounds to act as inhibitors of human trypsin catalytic activity is assessed by determination of that concentration of test substance that inhibits by 50% (IC50) the ability of human trypsin to cleave the chromogenic substrate S2222 (N-Bz-L-Ile-L-Glu-L-Gly-L-Arg-p-nitroanilide. HCl, DiaPharma). Typically, 145 μL human trypsin (0.5 nM final) in 10 mM HEPES, 150 mM NaCl, 0.1% BSA, and 5 μL of the test substance in DMSO (2% final) are incubated for 60 minutes at room temperature. Following preheating to 37° C. for 5 minutes, to this mixture is added 100 μL of S2222 in HBSA buffer (100 μM final), and the velocity of S2222 hydrolysis is determined at 37° C. by measuring the optical density at OD405 nm every 10 seconds over 5 minutes using a ThermoMax® Kinetic Microplate Reader.

[5] = dog, adjunct to recombinant tissue plasminogen activator; Mellott et al. 1993; cited from earlier work
[6] = rabbit venous thrombosis; Fioravanti et al. 1993; cited from earlier work
[7] = canine coronary artery, electrolytic lesion model; Lynch et al., Schaffer et al.; cited from earlier work
[8] = various models of arterial and venous thrombosis; Lapatto et al. 1997; cited from earlier work

CC(=N)N1CC[C@H](Oc2ccc([C@H](Cc3ccc4ccc(C(=N)N)cc4c3)C(=O)O)cc2)C1 [DX9065a]
inhibition of thrombus formation [1]: inhibition of thrombus formation was achieved at doses that had little effect on APTT

C[C@@H]1CCC[C@H](C)N1CCCCCN1C(=O)C(c2cc(C(=N)N)ccc2O)Cc2ccccc21 (stereo partly drawn) [Example 2, 3-(1-5-[(2R,6S)-2,6-dimethyltetrahydro-1(2H)-pyridinyl]pentyl-2-oxo-1,2,3,4-tetrahydro-3-quinolinyl)-4-hydroxybenzenecarboximidamide]
IC50 [2]: 20 nM
IC50 [3]: 1140 nM
IC50 [4]: 562 nM

rTAP: recombinant tick anticoagulant peptide, a protein or polypeptide factor Xa inhibitor (YNRLCIKPRDWIDECDSNEGGERAYFRNGKGGCDSFWICPEDHTGADYYSSYRDCFNACI; UniProt P17726 1-60, looked up)
clot lysis and acute reocclusion [5]: accelerate the recombinant tissue plasminogen activator mediated clot lysis and prevent acute reocclusion
fibrin deposition [6]: reduce fibrin deposition
thrombus mass and time to occlusion [7]: reduce thrombus mass and time to occlusion

B1: Antistasin: a potent inhibitor of blood coagulation factor Xa, from the Mexican leech Haementeria officinalis (protein, UniProt P15358 18-136, looked up)
Antistasin: QGPFGPGCEEAGCPEGSACNIITDRCTCSGVRCRMHCPHGFQRSRYGCEFCKCRLEPMKATCDISECPEGMMCSRLTNKCDCKIDINCRKTCPNGLKRDKLGCEYCECRPKRKLIPRLS
antithrombotic activity [8]: displays antithrombotic activity
